In brackets after ≈: the same amount, converted by molar mass. Activity calls are given as the source filed them. The rule behind the calls is not given here.
Experiments:
P388 = assay: Cytotoxicity against mouse P388 cells; format: functional; conditions: read-out: ED50 (the source's name)
KB = assay: Cytotoxicity against human KB cells; format: functional; conditions: read-out: ED50 (the source's name)
L1210 = assay: In vivo cytotoxicity against mouse L1210 cells at 300 to 400 mg/kg relative to control; format: functional, organism-based

| SMILES | EC50 (P388) [µg/mL] | EC50 (KB) [µg/mL] | Activity (L1210) |
| --- | --- | --- | --- |
| CC(C)(O)/C=C/C(=O)[C@](C)(O)[C@H]1[C@H](O)C[C@@]2(C)[C@@H]3CC=C4[C@@H](C[C@H](O)[C@@H](O)C4(C)C)[C@]3(C)C(=O)C[C@]12C [CUCURBITACIN F] | 0.04 (≈ 0.0771 µM) | 0.074 (≈ 0.143 µM) |  |
| Cc1cccc2c1C(=O)C1[C@H]3CCCN3CC[C@H]1O2 (some centres undefined) |  |  | inactive |
| Cc1cccc2c1C(=O)[C@H]1[C@H](CCN3CCC[C@H]13)O2 |  |  | inactive |
| CC(=O)[C@H]1[C@H](O)C[C@@]2(C)[C@@H]3CC=C4[C@@H](C[C@H](O)[C@@H](O)C4(C)C)[C@]3(C)C(=O)C[C@]12C [HEXANORCUCURBITACIN F] | > 50 | > 50 |  |
| CC(C)(O)CCC(=O)[C@](C)(O)[C@H]1[C@H](O)C[C@@]2(C)[C@@H]3CC=C4[C@@H](C[C@H](O)[C@@H](O)C4(C)C)[C@]3(C)C(=O)C[C@]12C | > 50 | > 50 |  |
| C[C@@H]1CC=CC2=C1C(=O)[C@H]1[C@H](CCN3CCC[C@H]13)O2 |  |  | inactive |

Source: ChEMBL document CHEMBL1151631, “Plant anticancer agents, XXXIV. Cucurbitacins from Elaeocarpus dolichostylus” (1984)
